Assay [1] concerns the target T1, recombinant mouse PREP (rmPREP) (Mus musculus, UniProt Q9QUR6).
T1 construct: purchased R&S system (so in the source)
The experiment in a line: PREP enzymatic activity assay. It is filed as biochemical. The following applies: Z-Gly-Pro-AMC substrate. As for the experimental part:
7-Amino-4-Methylcoumarin (AMC) release was detected by measuring fluorescence at Ex/Em 380/460 nm using a Multifunction Microplate Reader (Synergy 4, Biotek). All measurements were carried out in triplicate.

In assay [2] the test system is endogenous FAP in plasma. Nature of the assay: PD study in hamsters: plasma FAP activity and endogenous FGF21. The assay is classed as in vivo, Golden Syrian hamsters. The following applies: hamster, 1 mg/kg IV or 10 mg/kg PO. The procedure:
To assess the effect of FAP inhibition by an exemplary compound over the cleavage of endogenously produced FGF21, in vivo PK/PD studies were conducted in male Golden Syrian hamsters following single intravenous and oral administration of an exemplary compound.
Hamsters from Group 1 received an intravenous bolus via jugular vein of 1 mg/kg of compound 13 (an exemplary compound). On the other hand, hamsters from Group 2 received an intragastric bolus of 10 mg/kg of compound 13 (an exemplary compound) using feeding needles.
Plasma samples were collected at 5, 10, 15, 30, 60, 120, 240, 360, 480 and 1440 minutes post-dose in both IV and PO groups. Hamsters from group 3 were not dosed and were used to collect samples of zero time point and baseline levels of FAP activity and endogenous FGF21.
Blood aliquots (100-150 μL) were collected from jugular vein catheterized hamsters in tubes coated with EDTA-K2, mixed gently, then kept on ice and centrifuged at 2,500×g for 15 minutes at 4° C., within 1 hour of collection. […]
Levels of endogenous hamster FGF21 in the plasma samples were quantified by using an ELISA kit (Cat. No. #EZRMFGF21-26K, Millipore) according to the manufacturer's instructions. […] Plasma samples of non-dosed animals were analyzed as a pool of plasma. […]

The target of assay [3] is T2, recombinant human FAPα (rhFAPα) (Homo sapiens, UniProt Q12884).
T2 construct: purchased R&S system (so in the source)
T2 sequence (Q12884 1-760): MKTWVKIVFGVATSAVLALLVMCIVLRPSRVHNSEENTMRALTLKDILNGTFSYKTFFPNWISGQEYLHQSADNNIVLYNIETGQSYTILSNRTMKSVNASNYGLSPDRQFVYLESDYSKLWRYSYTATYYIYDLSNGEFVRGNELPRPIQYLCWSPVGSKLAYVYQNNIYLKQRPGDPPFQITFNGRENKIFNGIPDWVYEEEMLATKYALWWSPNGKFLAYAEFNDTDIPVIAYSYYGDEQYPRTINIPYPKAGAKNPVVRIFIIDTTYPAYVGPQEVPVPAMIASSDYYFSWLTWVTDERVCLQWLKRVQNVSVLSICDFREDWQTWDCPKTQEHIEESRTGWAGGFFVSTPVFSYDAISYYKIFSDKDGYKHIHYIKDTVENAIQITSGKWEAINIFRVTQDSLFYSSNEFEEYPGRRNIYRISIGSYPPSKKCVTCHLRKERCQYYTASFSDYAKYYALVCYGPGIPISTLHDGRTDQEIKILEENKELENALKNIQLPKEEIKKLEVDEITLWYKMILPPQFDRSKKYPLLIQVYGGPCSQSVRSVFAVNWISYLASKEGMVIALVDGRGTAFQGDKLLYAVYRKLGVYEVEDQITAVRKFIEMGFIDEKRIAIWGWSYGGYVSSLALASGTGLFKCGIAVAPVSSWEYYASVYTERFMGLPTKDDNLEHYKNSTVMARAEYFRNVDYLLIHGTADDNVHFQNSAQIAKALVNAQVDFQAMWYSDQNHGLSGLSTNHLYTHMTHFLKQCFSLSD
Nature of the assay: FAPα enzymatic endopeptidase (collagenase) activity assay. It is filed as biochemical. The following applies: DQ collagen substrate, read-out: rhFAPα (endo IC50). The procedure: FAPα enzymatic endopeptidase (collagenase) activity assay. […] All measurements were performed as a single point.

Assay [4] addresses T3, recombinant mouse FAPα (rmFAPα) (Mus musculus, UniProt P97321).
T3 construct: purchased R&S system (so in the source)
T3 sequence (P97321 1-761): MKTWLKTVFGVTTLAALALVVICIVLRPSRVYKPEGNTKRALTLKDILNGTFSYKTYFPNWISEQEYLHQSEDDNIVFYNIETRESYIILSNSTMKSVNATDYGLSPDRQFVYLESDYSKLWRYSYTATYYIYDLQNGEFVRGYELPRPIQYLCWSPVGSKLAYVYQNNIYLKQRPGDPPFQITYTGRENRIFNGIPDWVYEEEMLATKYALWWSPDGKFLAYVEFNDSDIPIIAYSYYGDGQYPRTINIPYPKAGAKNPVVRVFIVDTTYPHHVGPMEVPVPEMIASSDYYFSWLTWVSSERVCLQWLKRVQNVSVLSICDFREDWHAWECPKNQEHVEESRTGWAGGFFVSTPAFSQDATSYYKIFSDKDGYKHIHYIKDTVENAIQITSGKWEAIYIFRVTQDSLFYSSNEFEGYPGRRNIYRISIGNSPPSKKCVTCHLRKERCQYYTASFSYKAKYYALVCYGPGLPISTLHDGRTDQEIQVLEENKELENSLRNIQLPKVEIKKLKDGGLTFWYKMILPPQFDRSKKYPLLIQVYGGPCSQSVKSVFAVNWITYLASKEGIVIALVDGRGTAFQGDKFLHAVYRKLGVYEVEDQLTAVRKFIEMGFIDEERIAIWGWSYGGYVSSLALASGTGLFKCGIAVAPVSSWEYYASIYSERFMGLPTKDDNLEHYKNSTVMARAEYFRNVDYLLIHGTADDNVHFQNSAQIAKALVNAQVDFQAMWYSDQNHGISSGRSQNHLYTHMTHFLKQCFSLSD
The experiment in a line: FAPα enzymatic exopeptidase (dipeptidase) activity assay. The assay is classed as biochemical. The following applies: exopeptidase, read-out: rmFAPα (exo IC50).

Assay [5] deals with T4, recombinant mouse DPPIV (rmDPPIV) (Mus musculus, UniProt P28843).
T4 construct: purchased R&S system (so in the source)
T4 sequence (P28843 whole entry): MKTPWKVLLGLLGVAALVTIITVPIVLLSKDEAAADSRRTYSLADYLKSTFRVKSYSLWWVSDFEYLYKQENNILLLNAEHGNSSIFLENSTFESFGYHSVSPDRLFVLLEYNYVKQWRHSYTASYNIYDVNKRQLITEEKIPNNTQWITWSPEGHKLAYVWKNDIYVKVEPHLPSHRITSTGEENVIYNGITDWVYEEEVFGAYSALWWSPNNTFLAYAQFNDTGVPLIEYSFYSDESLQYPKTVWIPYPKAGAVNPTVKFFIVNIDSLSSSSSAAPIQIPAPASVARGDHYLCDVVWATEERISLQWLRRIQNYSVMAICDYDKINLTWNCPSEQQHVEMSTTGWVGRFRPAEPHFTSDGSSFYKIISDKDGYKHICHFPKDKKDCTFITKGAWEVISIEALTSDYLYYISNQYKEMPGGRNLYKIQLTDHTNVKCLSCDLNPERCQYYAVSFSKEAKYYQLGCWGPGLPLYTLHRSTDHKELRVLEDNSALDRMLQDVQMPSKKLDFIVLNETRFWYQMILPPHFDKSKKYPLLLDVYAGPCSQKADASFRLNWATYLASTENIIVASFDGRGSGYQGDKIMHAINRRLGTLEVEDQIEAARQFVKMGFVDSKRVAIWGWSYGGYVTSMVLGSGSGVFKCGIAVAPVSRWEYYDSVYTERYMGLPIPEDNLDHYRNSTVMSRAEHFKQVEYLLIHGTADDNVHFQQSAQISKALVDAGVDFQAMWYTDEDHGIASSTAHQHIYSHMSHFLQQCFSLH
The experiment in a line: DPPIV enzymatic activity assay. The following applies: H-Gly-Pro-pNA substrate. It is filed as biochemical.

The values below come from US11780821B2, “Inhibitors of fibroblast activation protein” (Praxis Biotech LLC, priority 2017, dated 2023).

Like-named read-outs stand apart in the source and are kept apart here. Where only a bound is given, the exact number is not on record here.

T1 sequence (Q9QUR6 whole entry): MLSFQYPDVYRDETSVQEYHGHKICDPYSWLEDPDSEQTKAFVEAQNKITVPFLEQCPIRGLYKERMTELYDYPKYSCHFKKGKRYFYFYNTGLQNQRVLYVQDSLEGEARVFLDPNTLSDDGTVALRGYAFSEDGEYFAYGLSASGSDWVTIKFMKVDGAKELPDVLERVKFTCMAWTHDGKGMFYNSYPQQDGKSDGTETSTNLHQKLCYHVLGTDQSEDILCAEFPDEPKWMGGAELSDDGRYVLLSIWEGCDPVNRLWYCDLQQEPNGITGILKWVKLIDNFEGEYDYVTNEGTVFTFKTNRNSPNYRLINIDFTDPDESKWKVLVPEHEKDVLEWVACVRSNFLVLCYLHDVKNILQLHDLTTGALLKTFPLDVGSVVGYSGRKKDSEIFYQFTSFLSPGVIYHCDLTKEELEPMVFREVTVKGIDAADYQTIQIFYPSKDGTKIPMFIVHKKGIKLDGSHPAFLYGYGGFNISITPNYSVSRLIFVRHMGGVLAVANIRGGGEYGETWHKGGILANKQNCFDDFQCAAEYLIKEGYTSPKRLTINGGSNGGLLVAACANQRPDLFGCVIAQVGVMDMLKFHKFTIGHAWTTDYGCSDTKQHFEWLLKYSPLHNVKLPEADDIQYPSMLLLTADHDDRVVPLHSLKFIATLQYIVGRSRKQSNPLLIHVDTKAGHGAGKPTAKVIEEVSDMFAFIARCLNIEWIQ

Broadly, the IC50 is the point on the concentration scale where inhibition reaches its midpoint. Regarding `N#C[C@@H]1CC(F)(F)CN1C(=O)CNC(=O)c1ccncc1-c1ccccc1` [Compound 13, (S)—N-(2-(2-cyano-4,4-difluoropyrrolidin-1-yl)-2-oxoethyl)-3-phenylisonicotinamide], the IC50 in assay [1] was greater than 10 µM; in assay [3], less than 1 µM; in assay [4] (Table 2, Z-Gly-Pro-AMC) it was less than 1 µM; in assay [4] (Table 3) it was less than 1 µM; in assay [5], greater than 10 µM. Moreover, the “FAP activity in plasma compared with baseline levels” value in assay [2] was “diminished quickly”. For the same molecule, the “levels of total endogenous FGF21 in plasma” value in assay [2] (ELISA) is recorded as “increased in the most of hamsters”.

Regarding `N#C[C@@H]1CC(F)(F)CN1C(=O)CNC(=O)c1ccncc1N1CCOCC1` [Compound 88, N-[2-[(2S)-2-cyano-4,4-difluoro-pyrrolidin-1-yl]-2-oxo-ethyl]-3-morpholino-pyridine-4-carboxamide], the IC50 in assay [4] (Table 3) is less than 1 µM.

For the molecule `N#C[C@@H]1CC(F)(F)CN1C(=O)CNC(=O)c1c[nH]c(=O)c2ccccc12` [Example 1, (S)—N-(2-(2-cyano-4,4-difluoropyrrolidin-1-yl)-2-oxoethyl)-1-oxo-1,2-dihydroisoquinoline-4-carboxamide], the IC50 was 1 to 10 µM in assay [1]; less than 1 µM in assay [3]; less than 1 µM in assay [4] (Table 2, Z-Gly-Pro-AMC); less than 1 µM in assay [4] (Table 3); 1 to 10 µM in assay [5].

As to `N#C[C@@H]1CC(F)(F)CN1C(=O)CNC(=O)c1c[nH]c(=O)cc1-c1ccc(F)cc1` [Compound 109, (S)—N-(2-(2-cyano-4,4-difluoropyrrolidin-1-yl)-2-oxoethyl)-4-(4-fluorophenyl)-6-oxo-1,6-dihydropyridine-3-carboxamide], the IC50 in assay [3] was less than 1 µM.

With `N#C[C@@H]1CC(F)(F)CN1C(=O)CNC(=O)c1ccncc1C1=CCNCC1` [Compound 105, (S)—N-(2-(2-cyano-4,4-difluoropyrrolidin-1-yl)-2-oxoethyl)-1′,2′,3′,6′-tetrahydro-[3,4′-bipyridine]-4-carboxamide 2,2,2-trifluoroacetate], in assay [3], the IC50 was less than 1 µM.

Take `N#C[C@@H]1CC(F)(F)CN1C(=O)CNC(=O)c1ccncc1C1CC1` [Compound 24, (S)—N-(2-(2-cyano-4,4-difluoropyrrolidin-1-yl)-2-oxoethyl)-3-cyclopropylisonicotinamide]: the IC50 in assay [3] was less than 1 µM; in assay [4] (Table 2, Z-Gly-Pro-AMC), less than 1 µM; in assay [4] (Table 3), less than 1 µM.

As for `N#C[C@@H]1CC(F)(F)CN1C(=O)CNC(=O)c1c[nH]c(=O)c(-c2ccccc2)c1` [Compound 14, (S)—N-(2-(2-cyano-4,4-difluoropyrrolidin-1-yl)-2-oxoethyl)-6-oxo-5-phenyl-1,6-dihydropyridine-3-carboxamide], the IC50 was greater than 10 µM in assay [1], less than 1 µM in assay [3] and greater than 10 µM in assay [5].

As for `N#C[C@@H]1CC(F)(F)CN1C(=O)CNC(=O)c1ccncc1-c1ccc(F)cc1` [Compound 52, (S)—N-(2-(2-cyano-4,4-difluoropyrrolidin-1-yl)-2-oxoethyl)-3-(4-fluorophenyl)isonicotinamide], the IC50 in assay [4] (Table 2, Z-Gly-Pro-AMC) was less than 1 µM; in assay [4] (Table 3), less than 1 µM.
